The nature of data set [1]: Brain:plasma exposure after repeat oral administration PND 11-70. The format is in vivo, mice. The settings on record: NPC1 (−/−) (Balb/c background), mouse, brain and plasma. How it is done: 24 NPC1 (−/−) mice were treated per oral gavage with AZ-3102-00 from post-natal day 11 (P11) to post-natal-day 70 (P70). Age-matched control mice included 6 NPC (−/−) and 4 NPC (+/−) mice treated with vehicle, and 4 NPC (+/+) mice received AZ-3102-00. After the last treatment on P70, NPC (−/−) mice (n=4 per timepoint) were euthanized by IP injection of 600 mg/kg pentobarbital at the following timepoints: 30 min, 1 h, 2 h, 4 h, 8 h, and 24 h. Control mice were also sacrificed after the last treatment (not time critical). Terminal blood was collected by heart puncture in EDTA coated tubes. Blood plasma was collected by centrifugation (3000×g for 10 minutes at room temperature) and 50 μL plasma aliquots were transferred to 1.5 mL tubes, frozen on dry ice and stored at −80° C.
(§1) 24 NPC1 (−/−) mice (groups D to I) were treated per oral gavage (10 mL/kg) with AZ-3102-00 from post-natal day 11 (P11) to post-natal-day 70 (P70). Dosing will start at 1.5 mg/kg from P11 to P25, followed by 3 mg/kg from P26 to P70. Control mice included 6 NPC1 (−/−) and 4 NPC (+/−) mice treated with vehicle and 4 NPC (+/+) mice received AZ-3102-00 (groups A to C).
After the last treatment on P70, NPC (−/−) mice (n=4 per timepoint; groups D to I) were euthanized by IP injection of 600 mg/kg pentobarbital a the following timepoints: 30 min, 1 h, 2 h, 4 h, 8 h, and 24 h. Control mice (groups A, B and C) were also sacrificed after the last treatment (not time critical).
At 30 min (Group D), 1 h (+/−5 min. Group E), 2 h (+/−5 min. Group F), 4 h (+/−5 min. Group G), 8 h (+/−5 min. Group H), and 24 h (+/−5 min. Group 1) (all time critical) after the last treatment on P70, mice were euthanized by i.p. injection.
Plasma samples were first mixed for protein precipitation with a solution of acetonitrile containing 50 ng/mL of AZ-3101 (internal standard). After 5 minutes incubation at room temperature, the samples were centrifuged for 5 minutes (13000 rpm, 4° C.) and the supernatant was diluted 10-fold in ultrapure water with 0.1% formic acid.
Brain tissues were homogenized in a solution of ultrapure water:methanol (1:1) with 0.1% formic acid (4 mL for each gram of tissue) using a FastPrep 24™ Microtube homogenizer (MP Biomedicals, USA). Brain homogenates were mixed for protein precipitation with a solution of acetonitrile containing 10 ng/mL of AZ-3101 (internal standard). After 5 minutes incubation at room temperature, the samples were centrifuged for 5 minutes (13000 rpm, 4° C.) and the supernatant was diluted 10-fold in ultrapure water with 0.1% formic acid.
Diluted plasma and brain tissue supernatants were injected into an Agilent LC system (Agilent, USA) by an automated sample injector (SIL-30, Shimadzu, USA). […] Data were calibrated and quantified using the Analyst™ data system (AB Sciex, version 1.6.3). […]

Data set [2] relates to glucosylceramide C16:0 and C18:0. The data set is described as follows: Glucosylceramide levels in brain homogenate of NPC mice (HPLC-MS/MS). The format is in vivo. How it is done:
as §1
Brain tissues were homogenized in a solution of ultrapure water:methanol (1:1) with 0.1% formic acid (4 mL for each gram of tissue) using a FastPrep 24™ Microtube homogenizer. Tissues homogenates were then mixed for protein precipitation with a solution of acetonitrile:ultrapure water:methanol (90:5:5) containing 500 nM of GlcCer C17:0 and 0.1% formic acid. After a 5-min incubation at room temperature, the samples were centrifuged for 5 min (13000 rpm, 20° C.) and 50 μL of the supernatants were transferred into a siliconized MTP 96-well plate.
Concentrations of glucosylceramide C16:0 (GlcCer C16:0), glucosylceramide C18:0 (GlcCer C18:0), and glucosylceramide C24:1 (GlcCer C24:1) brain, samples were quantified by HPLC-MS/MS detection in the multiple-reaction-monitoring mode (MRM). Supernatants were analysed by HPLC-MS/MS while using a HALO HILIC column (150*4.6 mm, 2.7 μm) from Advanced Materials Technology for distinguishing between the galactosyl- and -glucosylceramide isomers. […] Analysis of GlcCer C16:0 and GlcCer C18:0 was performed using a gradient with mobile phase A: 5 mM Ammonium Acetate in 94.5% acetonitrile 2.5% Methanol, 2.5% ultrapure water and 0.5% formic acid and mobile phase B: ultrapure Water and 0.1% formic acid. The LLOQ in brain samples for GlcCer 16:0, GlcCer 18:0 and GlcCer 24:1 was […] tissue, respectively.

Data set [3] in a line: Stability of the crystalline form (transition of Form 2 into Form 3). The format is physicochemical. The settings on record: Form 2 transitions into Form 3 above around 30° C. in about 1-5 min, or in solvent for more than 5 min at around 25° C.; listed as Form 3. How it is done:
Alternatively, Form 2 transitioned into Form 3 upon equilibration in solvent (e.g. acetone) for more than 5 min at around 25° C.

[4] abbreviates: whole brain homogenates, daily oral dosing PND 11-70.

1 compound from patent US12116344B2, “Crystalline forms of a pharmaceutical compound” (Azafaros B.V., priority 2020, dated 2024) can be followed below.

Where two headings read alike, the source gives them in different places.

For the compound `OC[C@H]1[C@@H](O)[C@H](O)[C@@H](O)CN1CCCCCOCc1ccc(-c2ccccc2)c(F)c1` [AZ-3102], the Kp is 1.37 in data set [1] (female, Female mice, read-out: Brain:Plasma Ratio AUC0-24); 0.41 in data set [1] (female, Female mice, read-out: Brain:Plasma Ratio Cmax); 0.95 in data set [1] (male, Male mice, read-out: Brain:Plasma Ratio AUC0-24); 0.26 in data set [1] (male, Male mice, read-out: Brain:Plasma Ratio Cmax). Moreover, in data set [2] (repeat oral administration PND 11-70), the “Levels of glucosylceramide C16:0 and C18:0 in the brain” value is given as “increased levels”. Also, the “Increase of GlcCer 16:0 compared to vehicle treated animals” value in data set [2] (setting [4]) is “greater than 2 fold”. The “Increase of GlcCer 18:0 compared to vehicle treated animals” value in data set [2] (setting [4]) was “approximately 9 fold”. Also, in data set [3], the “Stability of the crystalline form” value is “better stability”.
